Earlier results on 6 molecules are cited in patent US6375634B1, “APPARATUS AND METHOD TO ENCAPSULATE, KILL AND REMOVE MALIGNANCIES, INCLUDING SELECTIVELY INCREASING ABSORPTION OF X-RAYS AND INCREASING FREE-RADICAL DAMAGE TO RESIDUAL TUMORS TARGETED BY IONIZING AND NON-IONIZING RADIATION THERAPY” (Oncology Innovations, Inc., priority 1997, dated 2002).

Data set [1] deals with human pancreatic adenocarcinoma AsPC-1 cells.
Data set [2] has as its system DNA. The settings on record: in the presence of hydrogen peroxide, among ferric iron chelates.
Data set [3] deals with DNA.
The conditions of data set [4]: iron overload states.
For data set [5] the following is noted: presence of l-histidine.
Data set [6] has as its system Chinese hamster ovary cells.

“Also recorded” adds a separate entry of the source.

For the molecule `Cc1c(N)nc([C@H](CC(N)=O)NC[C@H](N)C(N)=O)nc1C(=O)N[C@H](C(=O)N[C@H](C)[C@@H](O)[C@H](C)C(=O)N[C@H](C(=O)NCCc1nc(-c2nc(C(=O)NCCC[S+](C)C)cs2)cs1)[C@@H](C)O)[C@@H](O[C@@H]1O[C@@H](CO)[C@@H](O)[C@H](O)[C@@H]1O[C@H]1O[C@H](CO)[C@@H](O)[C@H](OC(N)=O)[C@@H]1O)c1c[nH]cn1.[Br-]` [Bleomycin A2], in data set [1], the “cell cycle effect in flow-cytometric analysis” value is on record as “induced G2/M block” and the induction of apoptosis result is given as “did not induce apoptosis”.
As to `O=C(O)CN(CC(=O)O)CC(=O)O.[Fe+3]` [ferric nitrilo tri-acetic acid], the DNA damage result in data set [2] is given as “produced the most DNA damage”.
With `OO` [hydrogen peroxide], the DNA injury entry in data set [3] (80 micromoles hydrogen peroxide, absence of histidine) was “no injury”.
As to `[Fe]` [iron], the “tissue iron level at which the heart sustains injury” value in data set [4] is “approximately one thousand”.
Take `N[C@@H](Cc1c[nH]cn1)C(=O)O` [l-histidine]: the DNA destroyed entry in data set [3] (80 micromoles hydrogen peroxide with 300 micromoles l-histidine present) is “more than 50%”. Moreover, the “sensitivity of hydrogen peroxide resistant cell lines” value in data set [5] is “rendered sensitive”.
With ferritin, the toxicity entry in data set [6] (32 micrograms/ml) is given as “nontoxic; also recorded: not toxic”. For the same molecule, the “reduction of clonogenic-cell survival after x-irradiation” value in data set [6] (32 micrograms/ml ferritin, 4.0 Gray) was “approximately 75%”. Further, in data set [6] (32 micrograms/ml ferritin, 4.0 Gray (about 0.66 without ferritin)), the “clonogenic-cell survival after x-irradiation” value is approximately 0.17.
